# Source: patent US7510852B2, “Biosynthetic genes and host cells for the synthesis of polyketide antibiotics and method of use” (priority 2002, dated 2009)
# What was measured:
# [1] = system: E. coli DH5αKT clones that spontaneously grew within the growth inhibition zone of a pALB571-pOp3-4/XALB2-3 exconjugant; assay: Cross-resistance test: albicidin production assay with X. albilineans Xa23R1; type: cell-based, Escherichia coli; conditions: albicidin produced by X. albilineans Xa23R1; two clones as tester strains
# Method: Assay of albicidin production. Albicidin production was tested by a microbiological assay as described previously (Rott et al., 1996). Rifampicin and kanamycin exconjugants were spotted with sterile toothpicks (2-mm-diameter spots) onto plates of SPA medium (2% sucrose, 0.5% peptone, 1.5% agar) and incubated at 28° C. for 2-5 days. The plates were then overlaid with a mixture of E. coli DH5α (10^7 cells in 2 ml of distilled water) plus 2 ml of molten 1.5% (wt/vol) Noble agar (Difco) at ca. 65° C. and examined for inhibition zones after 24 h at 37 C.
# Two E. coli DH5αKT clones, that spontaneously grew within the growth inhibition zone of a X. axonopodis pv. vesicatoria pALB571-pOp3-4/XALB2-3 exconjugant on SPA+tetracycline medium, were isolated and tested for resistance to albicidin. […] Comparison of chemical characteristics of the two molecules will, however, be necessary to confirm that the two molecules are identical.
# [2] = system: chloroplast DNA replication; conditions: Birch and Patil, 1983-1987; cited from earlier work
# proteases = conditions: Birch and Patil, 1985a; cited from earlier work
# [3] = system: gram-positive and gram-negative bacteria; conditions: range of gram-positive and gram-negative bacteria; Birch and Patil, 1985a; cited from earlier work
# [4] = system: prokaryotic DNA replication; conditions: Birch and Patil, 1985a; cited from earlier work
substance,measurement,setting,value
albicidin,growth inhibition of clones resistant to the albicidin-like product,[1],No growth inhibition
same,effect on chloroplast DNA replication,[2],inhibits chloroplast DNA replication
same,sensitivity to proteases,proteases,insensitive to proteases
same,bactericidal activity,[3],bactericidal
same,effect on prokaryotic DNA replication,[4],inhibits prokaryotic DNA replication
